Like-named read-outs stand apart in the source and are kept apart here.
Experiments:
[1] = molecular target: T1, rat brain A1 adenosine receptor (Rattus norvegicus, UniProt P25099); assay: Rat A1 adenosine receptor binding assay, displacement of [^3 H]CHA; conditions: rat brain membranes, [^3 H]CHA 1 nM; read-out: rA1 (Ki)
T1 construct: membranes of rat brain; from tissue; host or cells: whole brain membranes of male Wistar rats
T1 sequence (P25099 1-326): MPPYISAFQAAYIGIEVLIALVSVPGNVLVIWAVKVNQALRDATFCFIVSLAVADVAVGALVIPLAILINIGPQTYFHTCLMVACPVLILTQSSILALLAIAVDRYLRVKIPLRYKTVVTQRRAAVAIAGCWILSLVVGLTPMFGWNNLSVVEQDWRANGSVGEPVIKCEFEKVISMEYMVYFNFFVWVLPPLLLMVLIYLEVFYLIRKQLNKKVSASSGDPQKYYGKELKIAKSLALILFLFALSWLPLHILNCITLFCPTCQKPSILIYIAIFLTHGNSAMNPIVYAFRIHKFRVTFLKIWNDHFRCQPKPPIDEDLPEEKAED
Description: Male Wistar rats (200-250 g) were decapitated and the whole brain and striatum dissected on ice. […] After 30 min incubation at 37° C., the membranes were centrifuged and pellets were stored at -80° C. Prior to freezing, an aliquot of homogenate was removed for protein assay with bovine albumin as reference standard. Binding assays were performed on rat brain and striatum membranes respectively, in the presence of 10 mM MgCl2 at 25° C. All buffer solutions were adjusted to maintain a constant pH of 7.4.
Separation of bound from free radio ligand was performed by rapid filtration through Whatman GF/B filters which were washed three times with ice-cold buffer. Filter bound radioactivity was measured by scintillation spectrometry after addition of 5 mL of Aquassure. […] Incubation time ranged from 150 min. at 0° C. to 75 min at 30° C. according to the results of previous time-course experiments. Ki values were calculated from the Cheng-Prusoff equation. All binding data were analyzed using the nonlinear regression curve-fitting computer program LIGAND.

[2] = molecular target: T2, adenosine A3 receptors in Jurkat cell membranes (Homo sapiens, UniProt P0DMS8); assay: Saturation of Compound 1 binding to A3 receptors in Jurkat cell membranes
T2 construct: characterization of A3 receptors in some human tumor cell lines; endogenous in cells; host or cells: Jurkat (human T-cell leukaemia), membranes
T2 sequence (P0DMS8 1-318): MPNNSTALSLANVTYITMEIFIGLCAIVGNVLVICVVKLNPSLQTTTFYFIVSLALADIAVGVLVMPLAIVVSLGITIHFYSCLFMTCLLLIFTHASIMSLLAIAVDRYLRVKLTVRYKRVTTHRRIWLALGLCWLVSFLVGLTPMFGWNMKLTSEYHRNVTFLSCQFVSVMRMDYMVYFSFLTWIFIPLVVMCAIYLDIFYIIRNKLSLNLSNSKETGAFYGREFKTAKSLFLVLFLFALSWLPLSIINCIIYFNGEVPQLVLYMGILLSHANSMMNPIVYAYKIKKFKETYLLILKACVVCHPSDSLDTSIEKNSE

[3] = molecular target: T3, adenosine A3 receptors in HL60 membranes (Homo sapiens, UniProt P0DMS8); assay: Saturation of Compound 1 binding to A3 receptors in HL60 membranes
T3 construct: characterization of A3 receptors in some human tumor cell lines; endogenous in cells; host or cells: HL60 (human promyelocytic leukaemia), membranes
T3 sequence (P0DMS8 1-318): T2 sequence (P0DMS8 1-318)

cerebral ischemia = conditions: chronic administration; cited from earlier work
HL 60 cell line = assay: [^125 I]-ABMECA binding on cell membranes of tumor cell lines: HL 60; design: species or system human
Description: (§1) A series of binding experiments were performed on various tumor cell lines, using […] [^125 I]-ABMECA, with unspecific binding determined in the presence of 50 μM R-PIA or 200 μM NECA, on cell membranes of the cell lines. Specific binding was determined by substracting unspecific binding from total binding. The cell lines were the HL 60, NB4, SKN-MC, SKN-Be2C, SKN-SH and JURKAT cell lines.

NB4 cell line = assay: [^125 I]-ABMECA binding on cell membranes of tumor cell lines: NB4
Description: as §1

SKN-MC cell line = assay: [^125 I]-ABMECA binding on cell membranes of tumor cell lines: SKN-MC
Description: as §1

SKN-Be2C cell line = assay: [^125 I]-ABMECA binding on cell membranes of tumor cell lines: SKN-Be2C
Description: as §1

SKN-SH cell line = assay: [^125 I]-ABMECA binding on cell membranes of tumor cell lines: SKN-SH
Description: as §1

JURKAT cell line = assay: [^125 I]-ABMECA binding on cell membranes of tumor cell lines: JURKAT; design: species or system human
Description: as §1

[4] = molecular target: T4, human A3 receptors expressed in HEK 293 cells (Homo sapiens, UniProt P0DMS8); conditions: saturation, n=3
T4 sequence (P0DMS8 1-318): T2 sequence (P0DMS8 1-318)
Description: Incubation time was 60 min at 37° C., according to the results of previous time-course experiments. Bound and free radioactivity were separated by filtering the assay mixture through Whatman GF/B glass-fiber filters using a Brandel cell harvester. Non-specific binding was defined as binding in the presence of 50 μM R-PIA and was about 30% of total binding. The incubation mixture was diluted with 3 ml of ice-cold incubation buffer, rapidly vacuum filtered and the filter was washed three times with 3 ml of incubation buffer. The filter bound radioactivity was counted in a Beckman gamma 5500B γ counter. The protein concentration can be determined according to a Bio-Rad method (3) with bovine albumin as reference standard.
Non-specific binding was defined in the presence of 50 μM R-PIA and was about 30% of total binding. Incubation time was 60 min at 37° C., according to the results of previous time-course experiments. Bound and free radioactivity was separated by filtering the assay mixture through Whatman GF/B glass-fiber filters using a Brandel cell harvester.

[5] = molecular target: T5, human A3 receptors expressed in the JURKAT cell line (Homo sapiens, UniProt P0DMS8); conditions: Jurkat cell membranes, [^125 I]AB-MECA
T5 sequence (P0DMS8 1-318): T2 sequence (P0DMS8 1-318)
Description: Jurkat cell lines appeared to provide the best results of the cell lines tested. A saturation experiment was performed using Jurkat cell lines at 37° C., with a one hour incubation period, using [^125 I]-ABMECA (0.125-1.5 nM), with nonspecific binding measured using RPIA (50 μM).

CCCn1cc2c(nc(NC(=O)Nc3ccc(OC)cc3)n3nc(-c4ccco4)nc23)n1 [Compound 1, 5-[[(4-Methoxyphenyl)amino]carbonyl]amino-8-propyl-2-(2-furyl)-pyrazolo[4,3-e] 1,2,4-triazolo[1,5-c]pyrimidine]
Ki [1]: > 10 µM | density of adenosine A3 receptors detected ([2]; Jurkat cells, tritiated analogue of Compound 1): approximately 1300 fmol/mg protein | Bmax value ([2]; Jurkat membranes, 0.2 to 15 nM, n=3): 1.30±0.03 pmol/mg protein | density of adenosine A3 receptors detected ([3]; HL60 cells, tritiated analogue of Compound 1): ~650 fmol/mg protein | Bmax value ([3]; HL60 membranes, 0.1 to 10 nM, n=3): 626±42 fmol/mg protein

CNC(=O)[C@H]1O[C@@H](n2cnc3c(NCc4cccc(I)c4)ncnc32)[C@H](O)[C@@H]1O [IB-MECA]
protection against cerebral ischemia (cerebral ischemia): protects against cerebral ischemia

CNC(=O)[C@H]1O[C@@H](n2cnc3c(NCc4ccc(N)c([125I])c4)ncnc32)[C@H](O)[C@@H]1O [[^125 I]AB-MECA, N^6-(4-amino-3-iodobenzyl)-5'-(N-methylcarbamoyl)adenosine]
Percent Specific Binding (HL 60 cell line; HL 60): 20% | Unspecific Binding (HL 60 cell line; HL 60, 50 μM R-PIA or 200 μM NECA): 2791 | Specific Binding (HL 60 cell line; HL 60, total minus unspecific): 693 cpm | Total Binding (HL 60 cell line; HL 60 cell membranes): 3484 | Percent Specific Binding (NB4 cell line; NB4): 19% | Unspecific Binding (NB4 cell line; NB4, 50 μM R-PIA or 200 μM NECA): 2740 | Specific Binding (NB4 cell line; NB4, total minus unspecific): 637 cpm | Total Binding (NB4 cell line; NB4 cell membranes): 3377 | Percent Specific Binding (SKN-MC cell line; SKN-MC): 17% | Total Binding (SKN-MC cell line; SKN-MC cell membranes): 7528 | Unspecific Binding (SKN-MC cell line; SKN-MC, 50 μM R-PIA or 200 μM NECA): 6220 | Specific Binding (SKN-MC cell line; SKN-MC, total minus unspecific): 1308 cpm | Percent Specific Binding (SKN-Be2C cell line; SKN-Be2C): 24% | Total Binding (SKN-Be2C cell line; SKN-Be2C cell membranes): 6000 | Unspecific Binding (SKN-Be2C cell line; SKN-Be2C, 50 μM R-PIA or 200 μM NECA): 4585 | Specific Binding (SKN-Be2C cell line; SKN-Be2C, total minus unspecific): 1415 cpm | Percent Specific Binding (SKN-SH cell line; SKN-SH): 3% | Total Binding (SKN-SH cell line; SKN-SH cell membranes): 2671 | Unspecific Binding (SKN-SH cell line; SKN-SH, 50 μM R-PIA or 200 μM NECA): 2580 | Specific Binding (SKN-SH cell line; SKN-SH, total minus unspecific): 91 cpm | Percent Specific Binding (JURKAT cell line; JURKAT): 38% | Total Binding (JURKAT cell line; JURKAT cell membranes): 7599 | Unspecific Binding (JURKAT cell line; JURKAT, 50 μM R-PIA or 200 μM NECA): 4753 | Specific Binding (JURKAT cell line; JURKAT, total minus unspecific): 2846 cpm | Bmax value [4]: 62±1 fmol/mg protein | Bmax (density of A3 receptor) [5]: approximately 300 fmol/mg protein | Bmax (density of A3 receptor) ([5]; listed as [^125 I]-ABMECA): 290 fmol/mg protein

Reference: US6326390A (King Pharmaceuticals Reseach and Development, Inc., priority 1999, dated 2001)
